Test results: patent US20090197955A1, “METHODS OF IMPROVING DHA DEPOSITION AND RELATED FUNCTION AND/OR DEVELOPMENT” (Monsanto Company, priority 2008, published 2009)

Test: Fatty acid composition of pig tissues (ham, loin, belly, skin) after feeding SDA ethyl ester diets, 35 day study
Assay type: in vivo, pigs
Settings: 35 days
Description: A 35 day study was conducted to determine whether pigs fed a diet containing SDA could enhance tissues with improved fatty acid profiles including increased levels of SDA, EPA, and DHA.
Four test diets (Treatment 2, 3, 4, and 5) with SDA ethyl ester substituted for corn oil to provide 0.2, 0.4, 0.6 and 0.8% (w/w SDA active ingredient, as-is basis) were fed ad libitum to one pen of four pigs throughout the 35-day test period Table 4). All diets were fed in meal form. Treatment 6 was fed the same diet as Treatment 5, but for a duration of only 21 days.
All pigs were individually weighed at initiation of the acclimation and test period, and immediately prior to slaughter. Feed consumption per pen was recorded. Upon completion of the feeding period, pigs were slaughtered for tissue collection and carcass evaluation. Pigs were slaughtered using standard industry practices (electrical stunning, exsanguinations, scalding, dehairing and evisceration). Live weights prior to slaughter and hot carcass weights were recorded. The left side of each carcass was fabricated and samples were obtained from the loin (longissimus muscle), ham (semimembranosus muscle) and belly (a section from the center of the belly) for sensory evaluation, fatty acid, and proximate analysis. Prior to removing the sample for sensory and fatty and proximate analysis from the belly the firmness of the belly was evaluated using a flop test. At 24 hr postmortem fat thickness (10th rib), loin eye area (10th rib), visual color, firmness and marbling, Minolta color (L*a*b*), pH, and drip loss were measured.
In order to evaluate the fatty acid composition of pig tissues (loin, ham, skin, and belly), samples were stored at −80° C. until evaluation. After thawing, ˜22 g of fresh pig tissue was chopped into small pieces and thoroughly mixed before 10 g was sub sampled and lyophilized. Lyophilized samples were ground in 30 ml Sarstedt tubes with two ball bearings using a Mega Grinder. Ground samples (loin and ham: 50 mg; skin: 100 mg; belly: 150 mg; diet: 500 mg) were directly methylated with sulfuric acid in methanol (loin and ham: 1 mL; skin: 3 mL; belly: 10 mL; diet: 1.5 mL) sealed in the presence of butylated hydroxytoluene (50 mg BHT in 100 ml reagent) in reflux conditions of 90° C. Resultant fatty acid methyl esters (FAME's) were separated by capillary gas chromatography (GC) and detected by flame ionization detector (FID). The column used was a Supelco Omegawax 250 capillary column with dimensions of 30 m×0.25 mm×0.25 μm film thickness. The run time was 32 minutes. Peaks were identified based on their relative retention time compared to a FAME reference mixture. Quantification was achieved by using an internal standard (c15:0 triacylglyceride (TAG) for pig tissue samples and c17:0 TAG for diet samples). Results are reported as FA g/100 g fat with theoretical response correction.
For Table 6 below, each value represents g/100 g total fatty acids a mean of 4 samples (1 sample from each of 4 pigs) per treatment.

## CC/C=C\C/C=C\C/C=C\C/C=C\CCCCC(=O)O [SDA, stearidonic acid]
0.2% SDA feed
  12:0, ham: 0.06 g FA per 100 g fat
  14:0, ham: 1.06 g FA per 100 g fat
  16:0, ham: 21.24 g FA per 100 g fat
  16:1 n-7, ham: 3.58 g FA per 100 g fat
  16:1 n-9, ham: 0.26 g FA per 100 g fat
  18:0, ham: 10.13 g FA per 100 g fat
  18:1 n-7, ham: 4.55 g FA per 100 g fat
  18:1 n-9, ham: 40.91 g FA per 100 g fat
  18:2 n-6 (LA), ham: 8.86 g FA per 100 g fat
  18:3 n-3 (ALA), ham: 0.20 g FA per 100 g fat
  18:3 n-6 (GLA), ham: 0.08 g FA per 100 g fat
  18:4 n-3 (SDA), ham: 0.03 g FA per 100 g fat
  20:0, ham: 0.16 g FA per 100 g fat
  20:1 n-7, ham: 0.04 g FA per 100 g fat
  20:1 n-9, ham: 0.69 g FA per 100 g fat
  20:1 n-11, ham: 0.04 g FA per 100 g fat
  20:2 n-6, ham: 0.38 g FA per 100 g fat
  20:3 n-3, ham: 0.03 g FA per 100 g fat
  20:3 n-6 (DGLA), ham: 0.29 g FA per 100 g fat
  20:4 n-3 (ETA), ham: 0.09 g FA per 100 g fat
  20:4 n-6 (AA), ham: 1.96 g FA per 100 g fat
  20:5 n-3 (EPA), ham: 0.17 g FA per 100 g fat
  22:0, ham: 0.03 g FA per 100 g fat
  22:1 n-9, ham: 0.00 g FA per 100 g fat
  22:1 n-11, ham: 0.00 g FA per 100 g fat
  22:1 n-13, ham: 0.00 g FA per 100 g fat
  22:2 n-7, ham: 0.00 g FA per 100 g fat
  22:3 n-6, ham: 0.24 g FA per 100 g fat
  22:5 n-3 (DPA), ham: 0.39 g FA per 100 g fat
  22:6 n-3 (DHA), ham: 0.09 g FA per 100 g fat
  24:1 n-9, ham: 0.04 g FA per 100 g fat
  Total PUFA, ham: 12.82 g FA per 100 g fat
  Total monoenes, ham: 50.11 g FA per 100 g fat
  Total n-3, ham: 1.01 g FA per 100 g fat
  Total n-6, ham: 11.81 g FA per 100 g fat
  Total saturates, ham: 32.68 g FA per 100 g fat
  n-6/n-3, ham: 11.69
0.2-0.8% SDA
  DHA enrichment in ham: enriched in ham in a dose dependent manner
  DPA enrichment in loin and ham tissues: enriched in loin and ham tissues in a dose dependent manner
  SDA, ETA and EPA enrichment in belly, loin, ham and skin tissues: enriched in belly, loin, ham, and skin tissues in a dose dependent manner
0.4% SDA feed
  12:0, ham: 0.06 g FA per 100 g fat
  14:0, ham: 1.10 g FA per 100 g fat
  16:0, ham: 21.45 g FA per 100 g fat
  16:1 n-7, ham: 3.45 g FA per 100 g fat
  16:1 n-9, ham: 0.25 g FA per 100 g fat
  18:0, ham: 10.74 g FA per 100 g fat
  18:1 n-7, ham: 4.28 g FA per 100 g fat
  18:1 n-9, ham: 39.94 g FA per 100 g fat
  18:2 n-6 (LA), ham: 9.18 g FA per 100 g fat
  18:3 n-3 (ALA), ham: 0.26 g FA per 100 g fat
  18:3 n-6 (GLA), ham: 0.09 g FA per 100 g fat
  18:4 n-3 (SDA), ham: 0.03 g FA per 100 g fat
  20:0, ham: 0.16 g FA per 100 g fat
  20:1 n-7, ham: 0.04 g FA per 100 g fat
  20:1 n-9, ham: 0.66 g FA per 100 g fat
  20:1 n-11, ham: 0.04 g FA per 100 g fat
  20:2 n-6, ham: 0.36 g FA per 100 g fat
  20:3 n-3, ham: 0.04 g FA per 100 g fat
  20:3 n-6 (DGLA), ham: 0.32 g FA per 100 g fat
  20:4 n-3 (ETA), ham: 0.14 g FA per 100 g fat
  20:4 n-6 (AA), ham: 1.90 g FA per 100 g fat
  20:5 n-3 (EPA), ham: 0.23 g FA per 100 g fat
  22:0, ham: 0.04 g FA per 100 g fat
  22:1 n-9, ham: 0.01 g FA per 100 g fat
  22:1 n-11, ham: 0.00 g FA per 100 g fat
  22:1 n-13, ham: 0.00 g FA per 100 g fat
  22:2 n-7, ham: 0.00 g FA per 100 g fat
  22:3 n-6, ham: 0.26 g FA per 100 g fat
  22:5 n-3 (DPA), ham: 0.44 g FA per 100 g fat
  22:6 n-3 (DHA), ham: 0.08 g FA per 100 g fat
  24:1 n-9, ham: 0.05 g FA per 100 g fat
  Total PUFA, ham: 13.34 g FA per 100 g fat
  Total monoenes, ham: 48.71 g FA per 100 g fat
  Total n-3, ham: 1.23 g FA per 100 g fat
  Total n-6, ham: 12.11 g FA per 100 g fat
  Total saturates, ham: 33.55 g FA per 100 g fat
  n-6/n-3, ham: 9.85
0.6% SDA feed
  12:0, ham: 0.06 g FA per 100 g fat
  14:0, ham: 1.05 g FA per 100 g fat
  16:0, ham: 21.49 g FA per 100 g fat
  16:1 n-7, ham: 3.03 g FA per 100 g fat
  16:1 n-9, ham: 0.26 g FA per 100 g fat
  18:0, ham: 11.47 g FA per 100 g fat
  18:1 n-7, ham: 4.08 g FA per 100 g fat
  18:1 n-9, ham: 37.64 g FA per 100 g fat
  18:2 n-6 (LA), ham: 9.92 g FA per 100 g fat
  18:3 n-3 (ALA), ham: 0.22 g FA per 100 g fat
  18:3 n-6 (GLA), ham: 0.14 g FA per 100 g fat
  18:4 n-3 (SDA), ham: 0.16 g FA per 100 g fat
  20:0, ham: 0.16 g FA per 100 g fat
  20:1 n-7, ham: 0.04 g FA per 100 g fat
  20:1 n-9, ham: 0.59 g FA per 100 g fat
  20:1 n-11, ham: 0.03 g FA per 100 g fat
  20:2 n-6, ham: 0.28 g FA per 100 g fat
  20:3 n-3, ham: 0.04 g FA per 100 g fat
  20:3 n-6 (DGLA), ham: 0.43 g FA per 100 g fat
  20:4 n-3 (ETA), ham: 0.26 g FA per 100 g fat
  20:4 n-6 (AA), ham: 2.60 g FA per 100 g fat
  20:5 n-3 (EPA), ham: 0.54 g FA per 100 g fat
  22:0, ham: 0.07 g FA per 100 g fat
  22:1 n-9, ham: 0.00 g FA per 100 g fat
  22:1 n-11, ham: 0.00 g FA per 100 g fat
  22:1 n-13, ham: 0.00 g FA per 100 g fat
  22:2 n-7, ham: 0.00 g FA per 100 g fat
  22:3 n-6, ham: 0.24 g FA per 100 g fat
  22:5 n-3 (DPA), ham: 0.67 g FA per 100 g fat
  22:6 n-3 (DHA), ham: 0.10 g FA per 100 g fat
  24:1 n-9, ham: 0.06 g FA per 100 g fat
  Total PUFA, ham: 15.59 g FA per 100 g fat
  Total monoenes, ham: 45.72 g FA per 100 g fat
  Total n-3, ham: 1.99 g FA per 100 g fat
  Total n-6, ham: 13.60 g FA per 100 g fat
  Total saturates, ham: 34.30 g FA per 100 g fat
  n-6/n-3, ham: 6.83
0.8% SDA feed
  12:0, ham: 0.05 g FA per 100 g fat
  14:0, ham: 0.96 g FA per 100 g fat
  16:0, ham: 20.70 g FA per 100 g fat
  16:1 n-7, ham: 2.90 g FA per 100 g fat
  16:1 n-9, ham: 0.53 g FA per 100 g fat
  18:0, ham: 11.25 g FA per 100 g fat
  18:1 n-7, ham: 4.27 g FA per 100 g fat
  18:1 n-9, ham: 35.19 g FA per 100 g fat
  18:2 n-6 (LA), ham: 11.90 g FA per 100 g fat
  18:3 n-3 (ALA), ham: 0.25 g FA per 100 g fat
  18:3 n-6 (GLA), ham: 0.21 g FA per 100 g fat
  18:4 n-3 (SDA), ham: 0.24 g FA per 100 g fat
  20:0, ham: 0.13 g FA per 100 g fat
  20:1 n-7, ham: 0.04 g FA per 100 g fat
  20:1 n-9, ham: 0.52 g FA per 100 g fat
  20:1 n-11, ham: 0.03 g FA per 100 g fat
  20:2 n-6, ham: 0.27 g FA per 100 g fat
  20:3 n-3, ham: 0.03 g FA per 100 g fat
  20:3 n-6 (DGLA), ham: 0.50 g FA per 100 g fat
  20:4 n-3 (ETA), ham: 0.29 g FA per 100 g fat
  20:4 n-6 (AA), ham: 3.12 g FA per 100 g fat
  20:5 n-3 (EPA), ham: 0.87 g FA per 100 g fat
  22:0, ham: 0.10 g FA per 100 g fat
  22:1 n-9, ham: 0.00 g FA per 100 g fat
  22:1 n-11, ham: 0.00 g FA per 100 g fat
  22:1 n-13, ham: 0.00 g FA per 100 g fat
  22:2 n-7, ham: 0.00 g FA per 100 g fat
